According to patent US6359111B1, “Opioid receptor targeting” (NeoRx Corporation, priority 1998, dated 2002):
Several values for one entry are separate records, joined by “and”; a condition that tells them apart may be missing. Identical values can stand only once.

Target: T1, Delta-Opioid Receptor (Mus musculus, UniProt P32300)
T1 construct: host or cells: NG108-15
Experiment: Delta-opioid receptor binding: inhibition of specific binding of 3H NID to intact NG108-15 cells
Conditions: for EC50: EC50 (M), competition with 3H NID, intact NG108-15 cells, 2 hr at 37° C.
Protocol: To do so, 1 to 4 serial dilutions of test compounds and naltrindole (NID, Sigma) are prepared to generate solutions with concentrations ranging from 10^−3 to 10^−14 M in 50 mM Tris buffer, pH 7.5. ^3H NID (American Radiolabeled Chemicals, St. Louis, Mo., specific activity 49 dpm/10^−15 mol) is prepared in Tris at a concentration of 10^−9 M. Cultured cells of the neruablastoma/glioblastoma hybrid cell line NG108-15 (American Type Culture Collection) are briefly trypsinized, washed with media, and resuspended at 6×10^5 cells/mL. 20 μL of test compound or NID solution and 20 μL of ^3H NID are added to each of 96 wells of a Multiscreen assay system (Millipore) MAFB. 160 μL of cell suspension in Dulbecco's MEM+HAT with 10% Fetal Bovine Serum are added. The reactions are allowed to equilibrate 2 hr at 37° C., vacuum filtered, washed 2× with 200 μL ice cold Tris buffer and air dried. The filters are punched out of the plate into scintillation vials and mixed on a shaker overnight before counting.
Data is analyzed by the Prism software package (GraphPad Software, Inc., San Diego, Calif.) using a non-linear curve fit routine for one site competitive binding.

T1 sequence (P32300 whole entry): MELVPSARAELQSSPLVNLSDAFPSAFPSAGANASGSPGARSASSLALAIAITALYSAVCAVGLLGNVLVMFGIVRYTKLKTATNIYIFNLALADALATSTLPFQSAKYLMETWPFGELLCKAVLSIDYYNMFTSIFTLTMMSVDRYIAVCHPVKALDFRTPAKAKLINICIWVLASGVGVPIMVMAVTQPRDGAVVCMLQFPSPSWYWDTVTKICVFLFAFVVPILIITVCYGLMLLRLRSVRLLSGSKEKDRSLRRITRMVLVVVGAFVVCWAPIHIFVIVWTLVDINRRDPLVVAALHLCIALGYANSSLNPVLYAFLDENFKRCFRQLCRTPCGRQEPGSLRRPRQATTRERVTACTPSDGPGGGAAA

Oc1ccc2c3c1O[C@H]1c4[nH]c5ccccc5c4C[C@@]4(O)[C@@H](C2)N(CC2CC2)CC[C@]314 [NID, naltrindole, reference compound]
EC50: 4.2e-09 M and 1.8e-09 M

O=C(O)CN1CCN(CC(=O)O)CCN(CC(=O)O)C(Cc2ccc(NC(=O)CCCCCNC(=O)Cn3c4c(c5ccccc53)CC3(O)C5Cc6ccc(O)c7c6C3(CCN5CC3CC3)C4O7)cc2)CN(CC(=O)O)CC1 (stereo not shown) [NID-DOTA]
EC50: 1.2e-08 M
Test/Control (ratio of EC50 of test compound to EC50 of NID in the same test): 2.8
fold lower in affinity than NID (summary of Table 1): about 3 fold
